From article PMC11555526, “Development of 2-Aminoadenine-Based Proteolysis-Targeting Chimeras (PROTACs) as Novel Potent Degraders of Monopolar Spindle 1 and Aurora Kinases” (ACS Pharmacology & Translational Science, 2024) come the findings set out here.

Holding throughout (format): cell-based
For one assay, the target named is T1, AURKB (Homo sapiens, UniProt Q96GD4).
T1 construct: endogenous in cells; host or cells: naive MV4-11
The assay is described as follows: Immunoblot of AURKB in naive MV4-11 cells. The following applies: 6 h, 10 µM. As to the method: (§1) The cells were treated with compounds or vehicle for indicated time points and lysed in RIPA lysis buffer (50 mM HEPES pH 7.9, 140 mM NaCl, 1 mM EDTA, 1% Triton X-100, 0.1% SDS, 0.1% sodium deoxycholate) containing protease and phosphatase inhibitors (Sigma) for 20 min at 4 °C. Cell lysates were cleared by centrifugation, and protein concentration was determined with bicinchoninic acid assay. Equal amounts of protein per sample were separated by Bis-Tris-PAGE and transferred to PVDF membranes (Millipore). The membranes were blocked with 5% (w/v) nonfat dry milk in TBS-T [20 mM Tris–HCl, pH 7.5, 150 mM NaCl, 0.1% (v/v) Tween-20] for 1 h at room temperature and incubated with primary antibody at 4 °C overnight. Visualization was carried out using horseradish peroxidase (HRP)-labeled secondary antibodies and detected using a chemiluminescent HRP substrate (Millipore) in LAS3000 or LAS4000 mini (Fujifilm). Vinculin, GAPDH, or B-actin were used as a loading control. The loading control was probed along with the target antibody by cutting the membrane. For targets with similar molecular weights, the samples were run in duplicate and probed with their respective loading controls, although only one control was shown in the figure for all targets. The signal was quantified using ImageJ or Image Studio Lite against the corresponding loading controls. Antibodies used in this study were as follows: Aurora A/AIK (Cell Signaling Technology, 3092), Aurora B (Bethyl Laboratories, A300–431A), TTK (Santa Cruz Biotechnology, sc-56968), GAPDH (Cell Signaling Technology, 2118), B-Actin (Sigma, A5441), and Vinculin (Sigma, V9131).
(§2) α GAPDH α Vinculin α B-Actin
(§3) Figure S2: Cellular degradation studies of SF1-based compounds. […]
(§4) Immunoblots of TTK and AURKB. Naive MV4-11 cells were treated with indicated concentration of 44 or 47 G)
(§5) (E), 18 (F), and 14 or 20 (G) for 6 h and compared with vehicle treated cells. […]
(§6) All HiBiT data are represented as a mean ±s.d. from n=2 replicates. […]
For orientation: Immunoblotting shows a protein as a band on a membrane.

Assay [1] deals with T2, TTK (Homo sapiens, UniProt P33981).
T2 sequence (P33981 1-857): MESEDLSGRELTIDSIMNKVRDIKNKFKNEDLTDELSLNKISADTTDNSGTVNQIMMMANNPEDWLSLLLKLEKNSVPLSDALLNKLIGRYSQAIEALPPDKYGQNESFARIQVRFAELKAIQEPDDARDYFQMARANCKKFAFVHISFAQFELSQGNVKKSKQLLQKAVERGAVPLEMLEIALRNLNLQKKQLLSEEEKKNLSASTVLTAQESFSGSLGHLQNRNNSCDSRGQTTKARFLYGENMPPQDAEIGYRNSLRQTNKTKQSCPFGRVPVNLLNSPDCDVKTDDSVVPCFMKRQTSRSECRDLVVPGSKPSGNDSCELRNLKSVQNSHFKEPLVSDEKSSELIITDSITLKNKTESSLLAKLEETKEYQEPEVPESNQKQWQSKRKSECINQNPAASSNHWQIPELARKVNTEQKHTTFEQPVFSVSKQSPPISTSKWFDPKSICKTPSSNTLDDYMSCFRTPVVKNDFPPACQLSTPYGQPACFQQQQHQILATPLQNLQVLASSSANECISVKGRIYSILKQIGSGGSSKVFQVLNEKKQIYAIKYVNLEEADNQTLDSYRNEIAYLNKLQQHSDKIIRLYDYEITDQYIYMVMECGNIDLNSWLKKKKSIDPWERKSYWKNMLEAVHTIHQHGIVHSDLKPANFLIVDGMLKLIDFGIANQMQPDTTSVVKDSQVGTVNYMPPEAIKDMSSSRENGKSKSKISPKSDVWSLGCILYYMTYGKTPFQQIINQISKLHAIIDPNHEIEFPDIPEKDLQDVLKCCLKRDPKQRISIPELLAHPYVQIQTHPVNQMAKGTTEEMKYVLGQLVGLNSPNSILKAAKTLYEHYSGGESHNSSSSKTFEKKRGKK
Kind of assay: Immunoblot of TTK in naive MV4-11 cells. More on the design: endogenous in cells; host or cells: naive MV4-11. The following applies: 6 h. As to the method: as §1, §2, §3
GAPDH was used as a loading control. (E-
as §4, §5, §6

Assay [2] deals with T2, TTK. Kind of assay: Immunoblot of TTK in CALU1 cells. More on the design: endogenous in cells. Conditions: 6 h. The protocol: as §1, with “V9131). […]” for “V9131).”
as §3
(E), 18 (F), and 14 or 20 (G) for 6 h and compared with vehicle treated cells. (H-J) Immunoblots of TTK and AURKB. CALU1 cells were treated with indicated concentration of 14 or 20 (H), 44 or 47 (I), and 46 (J) for 6 h and compared with DMSO treated cells. All HiBiT data are represented as a mean ±s.d. from n=2 replicates. […]

The structures appear in SMILES notation.

T1 sequence (Q96GD4 whole entry): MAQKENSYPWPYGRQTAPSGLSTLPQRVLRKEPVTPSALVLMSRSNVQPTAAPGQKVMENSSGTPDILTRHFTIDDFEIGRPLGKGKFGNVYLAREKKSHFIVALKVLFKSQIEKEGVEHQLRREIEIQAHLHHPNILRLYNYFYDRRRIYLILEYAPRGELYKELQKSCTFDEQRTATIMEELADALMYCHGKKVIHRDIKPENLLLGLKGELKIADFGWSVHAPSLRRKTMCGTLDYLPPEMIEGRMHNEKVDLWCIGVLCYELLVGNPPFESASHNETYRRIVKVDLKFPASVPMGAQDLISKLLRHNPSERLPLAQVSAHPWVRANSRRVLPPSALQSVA

For `CC(C)S(=O)(=O)c1ccccc1Nc1nc(Nc2ccc(N3CCN(C(=O)CCCC(=O)Nc4cccc5c4C(=O)N(C4CCC(=O)NC4=O)C5=O)CC3)cc2)nc2[nH]cnc12` (stereo not shown) [Compound 14], the “relative AURKB level (immunoblot quantification, vehicle = 1.00)” value on AURKB is reported as 0.87. The “relative TTK level (immunoblot quantification, vehicle = 1.00)” value on TTK [1] (10 µM) was found to be 1.16. Further, the “relative TTK level (immunoblot quantification, DMSO = 1.00)” value at TTK [2] (10 µM) was found to be 1.00.
With `CC(C)S(=O)(=O)c1ccccc1Nc1nc(Nc2ccc(N3CCN(C(=O)CNC(=O)CCCC(=O)Nc4cccc5c4C(=O)N(C4CCC(=O)NC4=O)C5=O)CC3)cc2)nc2[nH]cnc12` (stereo not shown) [Compound 20], the “relative TTK level (immunoblot quantification, DMSO = 1.00)” value at TTK [2] (0.1 µM) was 0.87.
As for `Cc1ncsc1-c1ccc(CNC(=O)[C@@H]2C[C@@H](O)CN2C(=O)[C@@H](NC(=O)CCCC(=O)N2CCN(c3ccc(Nc4nc(Nc5ccccc5S(=O)(=O)C(C)C)c5nc[nH]c5n4)cc3)CC2)C(C)(C)C)cc1` [Compound 44], the “relative AURKB level (immunoblot quantification, vehicle = 1.00)” value on AURKB turned out to be 0.79. The “relative TTK level (immunoblot quantification, vehicle = 1.00)” value at TTK [1] (0.01 µM) was 1.00; at TTK [1] (1 µM), 1.00; on TTK [1] (10 µM) it was 0.67. For the same compound, the “relative TTK level (immunoblot quantification, DMSO = 1.00)” value on TTK [2] (0.01 µM) and at TTK [2] (0.1 µM) was 0.79 each time.
